Consider one molecule from patent publication US8227497B2, “Dual-acting antihypertensive agents” (Theravance, Inc., priority 2008, dated 2012).

SMILES strings stand for the structures. A value given as a limit tells only on which side of the number the result lay.

For one experiment, the target named is T1, NEP enzyme (Homo sapiens, UniProt P08473).
T1 construct: purchased R&D Systems, Minneapolis, Minn; 1182-ZN
The experiment is described as follows: In vitro NEP enzyme inhibition assay (Assay 2). It is filed as biochemical. Conditions: fluorogenic peptide substrate, room temperature; read-out: pIC50 for the NEP enzyme (converted). On the procedure:
The inhibitory activities of compounds at human and rat NEP and human ACE were determined using in vitro assays as described below.
Rat NEP was prepared from the kidneys of adult Sprague Dawley rats. Whole kidneys were washed in cold PBS and brought up in ice-cold lysis buffer (1% Triton X-114, 150 mM NaCl, 50 mM Tris pH 7.5; Bordier (1981) J. Biol. Chem. 256:1604-1607) in a ratio of 5 mL of buffer for every gram of kidney. Samples were homogenized using a polytron hand held tissue grinder on ice. Homogenates were centrifuged at 1000×g in a swinging bucket rotor for 5 minutes at 3° C. The pellet was resuspended in 20 mL of ice cold lysis buffer and incubated on ice for 30 minutes. […] Protein concentrations were quantitated using a BCA detection system with BSA as a standard. […]
The assays were performed in 384-well white opaque plates at room temperature using the respective fluorogenic peptides at a concentration of 10 μM in Assay Buffer (50 mM Tris/HCl at 25° C., 100 mM NaCl, 0.01% Tween-20, 1 μM Zn, 0.025% BSA). […] The rat NEP enzyme preparation was used at a concentration that yielded quantitative proteolysis of 3 μM of Mca-RRL within 20 minutes at room temperature. […]
Plates were read on a fluorometer with excitation and emission wavelengths set to 320 nm and 405 nm, respectively. […]

The next experiment addresses T2, human AT1 receptor (Homo sapiens, UniProt P30556).
T2 construct: expressed in transfected cells; membranes
T2 sequence (P30556 1-359): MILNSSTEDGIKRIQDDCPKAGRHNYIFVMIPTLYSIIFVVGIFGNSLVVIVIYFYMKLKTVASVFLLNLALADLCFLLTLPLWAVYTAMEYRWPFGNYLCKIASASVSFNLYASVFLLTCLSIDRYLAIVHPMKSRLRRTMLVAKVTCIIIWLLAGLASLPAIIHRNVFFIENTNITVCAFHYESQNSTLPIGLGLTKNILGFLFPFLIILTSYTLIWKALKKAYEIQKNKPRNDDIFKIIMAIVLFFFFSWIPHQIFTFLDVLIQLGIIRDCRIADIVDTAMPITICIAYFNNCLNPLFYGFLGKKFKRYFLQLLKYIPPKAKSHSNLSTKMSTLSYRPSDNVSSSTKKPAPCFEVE
Description: AT1 radioligand binding assay (Assay 1). To be noted: displacement of [Eu]AngII, membranes of CHO-K1 cells expressing human AT1 receptor; read-out: pKi at the AT1 receptor (converted). As for the experimental part: These in vitro assays were used to assess the ability of test compounds to bind to the AT1 and the AT2 receptors.
Chinese hamster ovary (CHO-K1) derived cell lines stably expressing the cloned human AT1 or AT2 receptors, respectively, were grown in HAM's-F12 medium supplemented with 10% fetal bovine serum, 10 μg/ml penicillin/streptomycin, and 500 μg/ml geneticin in a 5% CO2 humidified incubator at 37° C. AT2 receptor expressing cells were grown in the additional presence of 100 nM PD123,319 (AT2 antagonist). When cultures reached 80-95% confluence, the cells were washed thoroughly in PBS and lifted with 5 mM EDTA. Cells were pelleted by centrifugation and snap frozen in MeOH-dry ice and stored at −80° C. until further use.
For membrane preparation, cell pellets were resuspended in lysis buffer (25 mM Tris/HCl pH 7.5 at 4° C., 1 mM EDTA, and one tablet of Complete Protease Inhibitor Cocktail Tablets with 2 mM EDTA per 50 mL buffer (Roche cat. #1697498, Roche Molecular Biochemicals, Indianapolis, Ind.)) and homogenized using a tight-fitting Dounce glass homogenizer (10 strokes) on ice. The homogenate was centrifuged at 1000×g, the supernatant was collected and centrifuged at 20,000×g. […] Protein concentration of the membrane suspension was determined by the method described in Bradford (1976) Anal Biochem. 72:248-54. […]

T1 sequence (P08473 52-750 limits assumed): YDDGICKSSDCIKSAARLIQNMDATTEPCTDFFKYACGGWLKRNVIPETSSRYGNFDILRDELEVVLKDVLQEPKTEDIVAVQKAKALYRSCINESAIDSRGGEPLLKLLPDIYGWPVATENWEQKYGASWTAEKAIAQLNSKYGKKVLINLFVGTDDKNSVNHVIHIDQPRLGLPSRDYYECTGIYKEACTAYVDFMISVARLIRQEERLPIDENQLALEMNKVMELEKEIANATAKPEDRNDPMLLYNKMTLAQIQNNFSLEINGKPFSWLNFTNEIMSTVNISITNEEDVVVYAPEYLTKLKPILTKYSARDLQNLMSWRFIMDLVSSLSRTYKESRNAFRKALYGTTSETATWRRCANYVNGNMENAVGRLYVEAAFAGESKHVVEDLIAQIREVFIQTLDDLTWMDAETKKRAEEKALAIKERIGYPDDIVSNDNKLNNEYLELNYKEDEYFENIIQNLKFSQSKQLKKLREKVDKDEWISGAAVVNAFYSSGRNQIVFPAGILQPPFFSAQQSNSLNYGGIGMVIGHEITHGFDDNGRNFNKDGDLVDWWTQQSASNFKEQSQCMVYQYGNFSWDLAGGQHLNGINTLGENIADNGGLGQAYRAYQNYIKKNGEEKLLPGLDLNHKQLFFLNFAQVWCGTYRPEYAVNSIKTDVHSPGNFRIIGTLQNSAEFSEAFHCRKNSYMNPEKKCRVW

Turning to `CCCCc1nc(Cl)c(CO)n1Cc1ccc(-c2ccccc2S(=O)(=O)NC(=O)CNC(=O)C(Cc2ccccc2)C(=O)NO)cc1` (centres unmarked) [Example 1, 2-Benzyl-N-{2-[4′-(2-butyl-4-chloro-5-hydroxymethylimidazol-1-ylmethyl)biphenyl-2-sulfonylamino]-2-oxoethyl}-N′-hydroxymalonamide.(C2HF3O2)], the IC50 on NEP enzyme is no more than 100 nM. In addition, the Ki at human AT1 receptor is less than 100 nM.
